Results on two compounds are retold here after ChEMBL document CHEMBL1144076, “New guaianolides and xanthine oxidase inhibitory flavonols from ajania fruticulosa” (J Nat Prod, 1999).

The assay concerns the target Xanthine dehydrogenase/oxidase (Homo sapiens, UniProt P47989). Briefly: Inhibition of xanthine oxidase by spectrophotometry.

Sequence of Xanthine dehydrogenase/oxidase (P47989 whole entry): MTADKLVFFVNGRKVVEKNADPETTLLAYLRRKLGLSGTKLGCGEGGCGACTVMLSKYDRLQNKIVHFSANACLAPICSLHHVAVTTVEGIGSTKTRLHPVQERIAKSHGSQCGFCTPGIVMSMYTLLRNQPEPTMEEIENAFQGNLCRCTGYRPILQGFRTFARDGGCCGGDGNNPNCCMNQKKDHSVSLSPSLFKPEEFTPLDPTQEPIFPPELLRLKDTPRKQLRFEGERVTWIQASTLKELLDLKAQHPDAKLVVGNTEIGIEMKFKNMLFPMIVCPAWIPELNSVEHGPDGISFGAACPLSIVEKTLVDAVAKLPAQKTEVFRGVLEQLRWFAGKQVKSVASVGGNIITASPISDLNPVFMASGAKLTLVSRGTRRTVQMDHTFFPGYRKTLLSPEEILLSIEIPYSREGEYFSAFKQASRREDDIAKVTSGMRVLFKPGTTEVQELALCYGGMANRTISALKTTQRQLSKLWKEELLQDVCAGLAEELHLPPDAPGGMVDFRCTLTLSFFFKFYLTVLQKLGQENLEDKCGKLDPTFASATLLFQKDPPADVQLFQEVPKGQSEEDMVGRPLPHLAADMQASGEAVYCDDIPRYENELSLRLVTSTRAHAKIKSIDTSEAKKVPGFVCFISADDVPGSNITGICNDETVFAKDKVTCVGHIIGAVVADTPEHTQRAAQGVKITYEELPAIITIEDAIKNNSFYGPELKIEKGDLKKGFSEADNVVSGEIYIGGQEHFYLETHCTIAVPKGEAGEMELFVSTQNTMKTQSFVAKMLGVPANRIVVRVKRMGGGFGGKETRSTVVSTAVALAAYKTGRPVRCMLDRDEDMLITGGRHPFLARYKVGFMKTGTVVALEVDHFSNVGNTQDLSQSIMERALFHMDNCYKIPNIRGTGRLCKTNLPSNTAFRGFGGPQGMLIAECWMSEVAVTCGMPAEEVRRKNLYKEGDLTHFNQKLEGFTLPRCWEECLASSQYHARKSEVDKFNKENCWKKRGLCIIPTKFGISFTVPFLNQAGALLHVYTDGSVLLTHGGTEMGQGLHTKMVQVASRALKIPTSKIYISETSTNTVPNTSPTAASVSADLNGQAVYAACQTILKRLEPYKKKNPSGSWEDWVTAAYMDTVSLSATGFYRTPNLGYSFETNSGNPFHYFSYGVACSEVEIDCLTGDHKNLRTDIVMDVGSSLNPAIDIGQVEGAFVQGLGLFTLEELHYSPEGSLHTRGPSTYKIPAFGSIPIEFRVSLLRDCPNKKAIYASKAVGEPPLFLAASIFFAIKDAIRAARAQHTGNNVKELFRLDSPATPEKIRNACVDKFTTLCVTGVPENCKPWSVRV

The term IC50 denotes the midpoint of a concentration-inhibition curve. Low readings indicate greater potency, high ones weaker potency. As for `COc1c(O)cc2oc(-c3ccc(O)c(O)c3)c(OC)c(=O)c2c1O` [AXILLARIN], the IC50 turned out to be 36 µM. That is a double-digit micromolar value. The figure for `COc1ccc(-c2oc3cc(O)c(OC)c(O)c3c(=O)c2OC)cc1` [SANTIN] is 36.5 µM.
